Measurements from ChEMBL document CHEMBL1828504, “Synthesis and SAR optimization of diketo acid pharmacophore for HCV NS5B polymerase inhibition” (Eur J Med Chem, 2011).

Experiment: Inhibition of recombinant HCV NS5B Cdelta21 polymerase assessed as [alpha-32P]UMP incorporation into RNA after 1 hr by liquid scintillation counting
Parameters: species or system Hepacivirus hominis

SMILES	IC50
O=C(O)/C(O)=C/C(=O)c1cccc(-c2nnn[nH]2)c1	5.2 µM
Cc1csc(C(=O)/C=C(\O)C(=O)O)c1	32.7 µM
CCOC(=O)/C(O)=C/C(=O)c1n[nH]c2ccccc12	38.4 µM
O=C(O)/C(O)=C/C(=O)c1cc2cc(Br)ccc2o1	8.2 µM
O=C(O)/C(O)=C/C(=O)c1ccc(I)s1	63.9 µM
O=C(O)/C(O)=C/C(=O)c1ccc(Cl)s1	25.5 µM
O=C(O)/C(O)=C/C(=O)c1nccs1	30.4 µM
O=C(O)/C(O)=C/C(=O)c1c(F)cccc1F	17 µM
O=C(O)/C(O)=C/C(=O)c1cccs1	17.3 µM
O=C(O)/C(O)=C/C(=O)c1ccccc1[N+](=O)[O-]	11.3 µM
CCOC(=O)/C(O)=C/C(=O)c1ccccc1F	12.4 µM
Cc1ccccc1C(=O)/C=C(\O)C(=O)O	6.9 µM
O=C(O)/C(O)=C/C(=O)c1cccc(F)c1	49.9 µM
O=C(O)/C(O)=C/C(=O)c1n[nH]c2ccccc12	24.7 µM
Cc1ccsc1C(=O)/C=C(\O)C(=O)O	7.5 µM
O=C(O)/C(O)=C/C(=O)c1cc2ccccc2o1	29.6 µM
N#Cc1cccc(C(=O)/C=C(\O)C(=O)O)c1	39.7 µM
O=C(O)/C(O)=C/C(=O)c1ccco1	21.8 µM
O=C(O)/C(O)=C/C(=O)c1ccc(Cl)cc1Cl	49.7 µM
O=C(O)/C(O)=C/C(=O)c1cc2ccccc2s1	37.7 µM
O=C(O)/C(O)=C/C(=O)c1ccc(F)cc1F	2.4 µM
Cc1ccc(C(=O)/C=C(\O)C(=O)O)s1	55.5 µM
O=C(O)/C(O)=C/C(=O)c1ccc(Br)s1	31.4 µM
O=C(O)/C(O)=C/C(=O)c1ccc(-c2ccccc2)cc1	20.9 µM
O=C(O)/C(O)=C/C(=O)c1ccccc1F	14.9 µM
O=C(O)/C(O)=C/C(=O)c1ccc[nH]1	21.7 µM
